According to US20250026778A1 (TIUMBIO CO., LTD., priority 2021, published 2025):

biological target: T1, his-galectin-3 (Homo sapiens, UniProt P17931); experiment: TR-FRET assay (in vitro galectin-3 binding inhibitory activity test); conditions: Table 1; compound at 20 μM; 60 nM his-galectin-3, 15 nM biotin-ASF
T1 construct: purchased Abcam
How it was run: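 Compound is premixed with his-galectin-3 (60 nM final), then biotin-ASF (15 nM), Tb anti-His antibody (2 nM) and streptavidin-d2 (20 nM) are added. After at least 3.5 hours at RT in HEPES/NaCl buffer with Tween 20 and BSA, TR-FRET is read at 615/665 nm. DMSO serves as the uninhibited control, ASF omission as background.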

T1 sequence (P17931 whole entry): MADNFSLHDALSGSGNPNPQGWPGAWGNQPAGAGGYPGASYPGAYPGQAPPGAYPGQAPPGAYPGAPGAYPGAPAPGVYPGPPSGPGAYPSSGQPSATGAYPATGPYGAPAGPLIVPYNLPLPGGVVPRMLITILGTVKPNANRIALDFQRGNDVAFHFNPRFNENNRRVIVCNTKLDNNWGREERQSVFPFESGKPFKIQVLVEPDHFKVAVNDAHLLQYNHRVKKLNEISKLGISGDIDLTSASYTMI

% Inhibitory activity (at 20 μM) | Structure (SMILES)
D (inhibition rate was less than 25%) | O=C1CCCC2(O[C@H](CO)[C@H](O)[C@H](n3cc(-c4cc(F)c(F)c(F)c4)nn3)[C@H]2O)N1CC(F)F (stereo partly drawn) [Compound A94, (2R,3R,4S,5R)-7-(2,2-difluoroethyl)-3.5-dihydroxy-2-(hydroxymethyl)-4-(4-(3,4,5-trifluorophenyl)-1H-1,2,3-triazol-1-yl)-1-oxa-7-azaspiro[5.5]undecan-8-one]

same assay, conditions: Table 1; compound at 20 μM; 60 nM his-galectin-3, 15 nM biotin-ASF; read-out: % Inhibitory activity (at 20 μM)

Structure (SMILES) | inhibition at 20 µM [%]
OC[C@H]1O[C@]2(OCC[C@H]2NCc2cccnc2)[C@H](O)[C@@H](n2cc(-c3cc(F)c(F)c(F)c3)nn2)[C@H]1O [Compound A85] | > 75
OC[C@H]1O[C@]2(OCC[C@H]2NCc2cccc(Cl)c2)[C@H](O)[C@@H](n2cc(-c3cc(F)c(F)c(F)c3)nn2)[C@H]1O [Compound A86, (4R,5S,7R,8R,9S,10R)-4-((3-chlorobenzyl)amino)-7-(hydroxymethyl)-9-(4-(3,4,5-trifluorophenyl)-1H-1,2,3-triazol-1-yl)-1,6-dioxaspiro[4.5]decane-8,10-diol] | > 75
OC[C@H]1O[C@]2(OCC[C@H]2NCc2ccccc2F)[C@H](O)[C@@H](n2cc(-c3cc(F)c(F)c(F)c3)nn2)[C@H]1O [Compound A87, (4R,5S,7R,8R,9S,10R)-4-((2-fluorobenzyl)amino)-7-(hydroxymethyl)-9-(4-(3,4,5-trifluorophenyl)-1H-1,2,3-triazol-1-yl)-1,6-dioxaspiro[4.5]decane-8,10-diol] | 25 to 50
OC[C@H]1O[C@@]2(CCCO2)[C@H](OCc2cccc(C(F)(F)F)c2)[C@@H](n2cc(-c3cc(F)c(F)c(F)c3)nn2)[C@H]1O [Compound A90, (5S,7R,8R,9S,10R)-7-(hydroxymethyl)-10-((3-(trifluoromethyl)benzyl)oxy)-9-(4-(3,4,5-trifluorophenyl)-1H-1,2,3-triazol-1-yl)-1,6-dioxaspiro[4.5]decan-8-ol] | < 25
OC[C@H]1O[C@@]2(CCCO2)[C@H](OCc2cccc(F)c2)[C@@H](n2cc(-c3cc(F)c(F)c(F)c3)nn2)[C@H]1O [Compound A91, (5S,7R,8R,9S,10R)-10-((3-fluorobenzyl)oxy)-7-(hydroxymethyl)-9-(4-(3,4,5-trifluorophenyl)-1H-1,2,3-triazol-1-yl)-1,6-dioxaspiro[4.5]decan-8-ol] | < 25

Next, values leading:

inhibition at 20 µM [%] | Structure (SMILES)
25 to 50 | O=C(O[C@@H]1[C@@H](n2cc(-c3cc(F)c(F)c(F)c3)nn2)[C@@H](O)[C@@H](CO)O[C@@]12CCCO2)c1cc(F)cc(F)c1 [Compound A92, (5S,7R,8R,9S,10R)-8-hydroxy-7-(hydroxymethyl)-9-(4-(3,4,5-trifluorophenyl)-1H-1,2,3-triazol-1-yl)-1,6-dioxaspiro[4.5]decan-10-yl 3,5-difluorobenzoate]
< 25 | O=C1CCCC2(N1)O[C@H](CO)[C@H](O)[C@H](n1cc(-c3cc(F)c(F)c(F)c3)nn1)[C@H]2OCc1ccccc1 (stereo partly drawn) [Compound A93, (2R,3R,4S,5R)-5-(benzyloxy)-3-hydroxy-2-(hydroxymethyl)-4-(4-(3,4,5-trifluorophenyl)-1H-1,2,3-triazol-1-yl)-1-oxa-7-azaspiro[5.5]undecan-8-one]
< 25 | O=C1CCCC2(O[C@H](CO)[C@H](O)[C@H](n3cc(-c4cc(F)c(F)c(F)c4)nn3)[C@H]2O)N1CC1CCS(=O)(=O)CC1 (stereo partly drawn) [Compound A95, (2R,3R,4S,5R)-7-((1,1-dioxidotetrahydro-2H-thiopyran-4-yl)methyl)-3,5-dihydroxy-2-(hydroxymethyl)-4-(4-(3,4,5-trifluorophenyl)-1H-1,2,3-triazol-1-yl)-1-oxa-7-azaspiro[5.5]undecan-8-one]
< 25 | OC[C@H]1O[C@]2(OCC[C@H]2NCc2cccc(C(F)(F)F)c2)[C@H](O)[C@@H](n2cc(-c3cc(F)c(F)c(F)c3)nn2)[C@H]1O [Compound A96, (4R,5S,7R,8R,9S,10R)-7-(hydroxymethyl)-4-((3-(trifluoromethyl)benzyl)amino)-9-(4-(3,4,5-trifluorophenyl)-1H-1,2,3-triazol-1-yl)-1,6-dioxaspiro[4.5]decane-8,10-diol]
< 25 | OC[C@H]1O[C@]2(OCC[C@H]2NCc2ccc(Cl)cc2)[C@H](O)[C@@H](n2cc(-c3cc(F)c(F)c(F)c3)nn2)[C@H]1O [Compound A97, (4R,5S,7R,8R,9S,10R)-4-((4-chlorobenzyl)amino)-7-(hydroxymethyl)-9-(4-(3,4,5-trifluorophenyl)-1H-1,2,3-triazol-1-yl)-1,6-dioxaspiro[4.5]decane-8,10-diol]
< 25 | OC[C@H]1O[C@]2(OCC[C@H]2NCc2ccccn2)[C@H](O)[C@@H](n2cc(-c3cc(F)c(F)c(F)c3)nn2)[C@H]1O [Compound A98, (4R,5S,7R,8R,9S,10R)-7-(hydroxymethyl)-4-((pyridin-2-ylmethyl)amino)-9-(4-(3,4,5-trifluorophenyl)-1H-1,2,3-triazol-1-yl)-1,6-dioxaspiro[4.5]decane-8,10-diol]
25 to 50 | OC[C@H]1O[C@]2(CCCO2)[C@H](O)[C@@H](n2cc(-c3cc(F)c(F)c(F)c3)nn2)[C@H]1O [Compound A100, (5R,7R,8R,9S,10R)-7-(hydroxymethyl)-9-(4-(3,4,5-trifluorophenyl)-1H-1,2,3-triazol-1-yl)-1,6-dioxaspiro[4.5]decane-8,10-diol]
25 to 50 | OC[C@H]1OC2(CCCC2)[C@H](O)[C@@H](n2cc(-c3cc(F)c(F)c(F)c3)nn2)[C@H]1O [Compound A101, (7R,8R,9S,10R)-7-(hydroxymethyl)-9-(4-(3,4,5-trifluorophenyl)-1H-1,2,3-triazol-1-yl)-6-oxaspiro[4.5]decane-8,10-diol]
25 to 50 | OC[C@H]1O[C@]2(OCC[C@H]2NCc2cccc(Br)c2)[C@H](O)[C@@H](n2cc(-c3cc(F)c(F)c(F)c3)nn2)[C@H]1O [Compound A102, (4R,5S,7R,8R,9S,10R)-4-((3-bromobenzyl)amino)-7-(hydroxymethyl)-9-(4-(3,4,5-trifluorophenyl)-1H-1,2,3-triazol-1-yl)-1,6-dioxaspiro[4.5]decane-8,10-diol]

same assay, conditions: Table 3, found values; compound at 20 μM; 60 nM his-galectin-3, 15 nM biotin-ASF; read-out: % Inhibitory activity (at 20 μM)

inhibition at 20 µM [%] | Structure (SMILES)
80.3 | OC[C@H]1O[C@]2(OCC[C@H]2NCc2cccc(Cl)c2)[C@H](O)[C@@H](n2cc(-c3cc(F)c(F)c(F)c3)nn2)[C@H]1O [Compound A86, (4R,5S,7R,8R,9S,10R)-4-((3-chlorobenzyl)amino)-7-(hydroxymethyl)-9-(4-(3,4,5-trifluorophenyl)-1H-1,2,3-triazol-1-yl)-1,6-dioxaspiro[4.5]decane-8,10-diol]
48.1 | OC[C@H]1O[C@]2(CCCO2)[C@H](O)[C@@H](n2cc(-c3cc(F)c(F)c(F)c3)nn2)[C@H]1O [Compound A100, (5R,7R,8R,9S,10R)-7-(hydroxymethyl)-9-(4-(3,4,5-trifluorophenyl)-1H-1,2,3-triazol-1-yl)-1,6-dioxaspiro[4.5]decane-8,10-diol]

same assay, conditions: read-out: % Inhibitory activity (at 20 μM), Table 1; compound at 20 μM; 60 nM his-galectin-3, 15 nM biotin-ASF

Structure (SMILES) | inhibition at 20 µM [%]
C[C@@H](O[C@@H]1[C@@H](n2cc(-c3cc(F)c(F)c(F)c3)nn2)[C@@H](O)[C@@H](CO)O[C@@]12CCCCO2)C(=O)O [Compound A83, (R)-2-(((2R,3R,4S,5R,6S)-3-hydroxy-2-(hydroxymethyl)-4-(4-(3,4,5-trifluorophenyl)-1H-1,2,3-triazol-1-yl)-1,7-dioxaspiro[5.5]undecan-5-yl)oxy)propanoic acid] | 25 to 50
OC[C@H]1O[C@@]2(CCCO2)[C@H](OCc2cncc(F)c2)[C@@H](n2cc(-c3cc(F)c(F)c(F)c3)nn2)[C@H]1O [Compound A84, (5S,7R,8R,9S,10R)-10-((5-fluoropyridin-3-yl)methoxy)-7-(hydroxymethyl)-9-(4-(3,4,5-trifluorophenyl)-1H-1,2,3-triazol-1-yl)-1,6-dioxaspiro[4.5]decan-8-ol] | < 25
O=C1CCCC2(N1)O[C@H](CO)[C@H](O)[C@H](n1cc(-c3cc(F)c(F)c(F)c3)nn1)[C@H]2O (stereo partly drawn) [Compound A88, (2R,3R,4S,5R)-3,5-dihydroxy-2-(hydroxymethyl)-4-(4-(3,4,5-trifluorophenyl)-1H-1,2,3-triazol-1-yl)-1-oxa-7-azaspiro[5.5]undecan-8-one] | < 25
